A short description of series [1]: Log D measurements (octanol/PBS, 13C NMR). The class given is physicochemical. To be noted: octanol / 1×PBS pH 7.4, 16 h shaking.
Procedure: 45 μmoles of ABA and 3-^13C-sodium L-lactate dissolved in 500 μL of 1×PBS at pH 7.4 were added to 500 μL of octanol and vigorously shaken for 16 h and then centrifuged for 2 min at 10,000×Gs to extract PBS. A 200 μL of D2O along with 188.7 μmoles (10 μL of 99.8%) of acetonitrile was added to the PBS and a carbon NMR was performed with 16 scans. The area under the curve for the NMR traces obtained was calculated using Mest-ReC software. Similarly, a carbon NMR was performed with 16 scans on a solution containing 45 μmoles of ABA, 45 μmoles of 3-^13C-sodium L-lactate dissolved in 500 μL of 1×PBS at pH 7.4 along with 200 μL of D2O and with 188.7 μmoles (10 μL of 99.8%) of acetonitrile. Area under the curve for the NMR traces obtained was calculated using Mest-ReC software. Acetonitrile peak at δ=1.47 was used as reference.
Furthermore, as controls, 3-^13C-sodium L-lactate dissolved in 500 μL of 1×PBS at pH 7.4 was added to 500 μL of octanol and vigorously shaken for 16 h and then centrifuged for 2 min at 10,000×Gs to extract PBS. A 200 μL of D2O along with 188.7 μmoles (10 μL of 99.8%) of acetonitrile was added to the PBS and a carbon NMR was performed with 16 scans. The area under the curve for the NMR traces obtained was calculated using Mest-ReC software. […] Area under the curve for the NMR traces obtained was calculated using Mest-ReC software.
A short description of series [2]: Permeation through DMPC liposomes (lactate assay kit). The class given is in vitro ADME. To be noted: 112 mM. The method, then: It was investigated whether ABA can enhance lactate membrane permeability. Liposomes were generated from 1,2-dimyristoyl-sn-glycero-3-phosphocholine (DMPC), by evaporating 400 μL of 1 mg/mL of DMPC in chloroform in a 100 mL glass flask to completion; and the lipids were re-suspended in 400 μL PBS, thereby forming the liposomes. 50 μL of the liposomes and 50 μL of 112 mM ABA premixed with lactate were then added to the wells of the 96-well plate, and lactate assay kit was performed, according to the manufacturer's instructions. As controls, 50 μL of PBS and 50 μL of 112 mM ABA premixed with lactate were then added to the wells of the 96-well plate and lactate assay kit was performed, according to the manufacturer's instructions. Furthermore, for determining the permeability of lactate through the liposomes, 50 μL of the liposomes and 50 μL of 112 mM lactate were added to the wells of the 96-well plate, and lactate assay kit was performed, according to the manufacturer's instructions. As controls, 50 μL of PBS and 50 μL of 112 mM lactate were added to the wells of the 96-well plate and lactate assay kit was performed, according to the manufacturer's instructions.

`C[C@H](O)C(=O)[O-].[Na+]` [lactate, sodium L-lactate]: in series [1], the “Log D” value was −2. The permeation through liposomes entry in series [2] was “did not permeate through the liposomes”.

The values are drawn from US9585958B2, “Compositions and methods for reducing lactate levels” (The Regents of the University of California, priority 2013, dated 2017).
